Test results: patent US20090054392A1, “NAPHTHYLPYRIMIDINE, NAPHTHYLPYRAZINE AND NAPHTHYLPYRIDAZINE ANALOGS AND THEIR USE AS AGONISTS OF THE WNT-BETA-CATENIN CELLULAR MESSAGING SYSTEM” (Wyeth, priority 2007, published 2009)

Tested on: Dkk1-LRP5-TCF-Luciferase
Assay: Functional Dkk1-LRP5-TCF-Luciferase Assay in U2OS Cells
Settings: for fold induction at 2 µM: read-out: B = TCF ACTIVITY/DMSO CONTROL Fold induction @ 2.0 uM, 2.0 uM compound; for fold induction at 20 µM: read-out: C = TCF ACTIVITY/DMSO CONTROL Fold induction @ 20.0 uM, 20.0 uM compound; for A = MAX FOLD Induction/DMSO CONTROL: maximum fold induction over DMSO control

SMILES	fold induction at 2 µM (Homo sapiens, U2OS)	fold induction at 20 µM (Homo sapiens, U2OS)	A = MAX FOLD Induction/DMSO CONTROL	EC50 (Homo sapiens, U2OS)
O=C(NC1CCCCC1)N1CCC(CNc2nccc(-c3ccc4ccccc4c3)n2)CC1 [N-cyclohexyl-4-({[4-(2-naphthyl)pyrimidin-2-yl]amino}methyl)piperidine-1-carboxamide]	1.81	0.067	1.230 fold	–
O=C(CN1CCN(c2nccc(-c3ccc4ccccc4c3)n2)CC1)N1CCOCC1 [4-({4-[4-(2-naphthyl)pyrimidin-2-yl]piperazin-1-yl}acetyl)morpholine]	1.03	2.1	1.180 fold	–
COC(=O)C(NC(=O)OC(C)(C)C)=C1CCN(c2nccc(-c3ccc4ccccc4c3)n2)CC1 [methyl [(tert-butoxycarbonyl)amino]{1-[4-(2-naphthyl)pyrimidin-2-yl]piperidin-4-ylidene}acetate]	1.01	1.24	–	–
CN(C)CCN[C@H]1CCN(c2nccc(-c3ccc4ccccc4c3)n2)C1 [N,N-dimethyl-N′-{(3S)-1-[4-(2-naphthyl)pyrimidin-2-yl]pyrrolidin-3-yl}ethane-1,2-diamine]	1.5	–	–	–
O=C(NC1CCCCC1)N1CCC(Nc2nccc(-c3ccc4ccccc4c3)n2)CC1 [N-cyclohexyl-4-{[4-(2-naphthyl)pyrimidin-2-yl]amino}piperidine-1-carboxamide]	–	1.45	–	–
CC(C1CCN(c2nccc(-c3ccc4ccccc4c3)n2)CC1)[N+](=O)[O-] (stereo not shown) [4-(2-naphthyl)-2-[4-(1-nitroethyl)piperidin-1-yl]pyrimidine]	–	1.44	–	–
Cc1ccc(S(=O)(=O)N[C@H]2CCN(c3nccc(-c4ccc5ccccc5c4)n3)C2)cc1 [4-methyl-N-{(3S)-1-[4-(2-naphthyl)pyrimidin-2-yl]pyrrolidin-3-yl}benzenesulfonamide]	1.24	–	–	–
CN(C)S(=O)(=O)NC1CCCN(c2nccc(-c3ccc4ccccc4c3)n2)CC1 (stereo not shown) [N,N-dimethyl-N′-{1-[4-(2-naphthyl)pyrimidin-2-yl]azepan-4-yl}sulfamide]	1.12	1.01	–	–
NC(=S)C1CCN(c2nccc(-c3ccc4ccccc4c3)n2)CC1 [1-[4-(2-naphthyl)pyrimidin-2-yl]piperidine-4-carbothioamide]	1.74	1.99	2.070 fold	–
CCNC(=O)N1CC[C@@H](Nc2nccc(-c3ccc4ccccc4c3)n2)C1 [(3R)—N-ethyl-3-{[4-(2-naphthyl)pyrimidin-2-yl]amino}pyrrolidine-1-carboxamide]	–	2.01	1.460 fold	–
CS(=O)(=O)N1CC[C@H](Nc2nccc(-c3ccc4ccccc4c3)n2)C1 [N-[(3S)-1-(methylsulfonyl)pyrrolidin-3-yl]-4-(2-naphthyl)pyrimidin-2-amine]	1.41	2.26	2.585 fold	2900 nM
O=C(NCC1CCN(c2nccc(-c3ccc4ccccc4c3)n2)CC1)N1CCCC1 [N-({1-[4-(2-naphthyl)pyrimidin-2-yl]piperidin-4-yl}methyl)pyrrolidine-1-carboxamide]	0.91	1.13	–	–
CCN(CCO)C[C@@H]1CCN(c2nccc(-c3ccc4ccccc4c3)n2)C1 [2-[ethyl({(3S)-1-[4-(2-naphthyl)pyrimidin-2-yl]pyrrolidin-3-yl}methyl)amino]ethanol]	3.48	0.04	3.540 fold	–
NCC1CCN(c2cc(-c3ccc4ccccc4c3)cnn2)CC1 [1-{1-[5-(2-naphthyl)pyridazin-3-yl]piperidin-4-yl}methanamine]	1.58	0.4	–	–
O=C(c1ccccc1)N1CC(CNc2nccc(-c3ccc4ccccc4c3)n2)C1 [N-[(1-benzoylazetidin-3-yl)methyl]-4-(2-naphthyl)pyrimidin-2-amine]	1.5	–	–	–
